Data reported in ChEMBL document CHEMBL1201862, “PubChem BioAssay data set” (2004).
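Grown in 96-well plates, cells were treated for 48 hours with each compound at five concentrations. Insufficient inhibition: endpoint recorded as highest concentration tested. GI50 is the concentration that inhibits growth by half.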 Activity calls are given as the source filed them. Rule as the data show it: active = GI50 up to about 1.1 µM and inactive = higher.

Columns and labels:
Test in all cases: growth of human tumour cells (NCI), 48 h
[1] = tested on: SW-620
[2] = tested on: SK-OV-3
[3] = tested on: COLO 205
[4] = tested on: HOP-92
[5] = tested on: SK-MEL-2
[6] = tested on: UACC-62
[7] = tested on: OVCAR-5
[8] = tested on: OVCAR-3
[9] = tested on: MOLT-4
[10] = tested on: CAKI-1
[11] = tested on: Hs-578T
[12] = tested on: MCF7
[13] = tested on: PC-3
[14] = tested on: A549
[15] = tested on: RPMI-8226
[16] = tested on: SK-MEL-28
[17] = tested on: T47D
[18] = tested on: ACHN
[19] = tested on: NCI/ADR-RES
[20] = tested on: M14

With `COC(=O)c1cc2c(n1S(=O)(=O)c1ccc(C)cc1)C(=O)C(=O)c1[nH]cc(C(=O)OCc3ccccc3)c1-2` the GI50 [1] was 0.0514 µM (active), the GI50 [2] was 0.871 µM (active) and the GI50 [3] was 0.191 µM (active). The GI50 [4] was 0.236 µM (active), the GI50 [5] was 0.112 µM (active) and the GI50 [6] was 0.0555 µM (active). For the same compound, the GI50 [7] was 0.575 µM (active), the GI50 [8] was < 0.0141 µM (active) and the GI50 [9] was 0.0647 µM (active). The GI50 [10] was 0.355 µM (active), the GI50 [11] was 0.43 µM (active) and the GI50 [12] was 0.0668 µM (active). The GI50 [13] was 0.264 µM (active), the GI50 [14] was 0.183 µM (active) and the GI50 [15] was 0.0883 µM (active). The GI50 [16] was 0.107 µM (active), the GI50 [17] was 0.216 µM (active) and the GI50 [18] was 0.233 µM (active). The GI50 [19] was 0.583 µM (active) and the GI50 [20] was 0.0621 µM (active).
With `Cc1ccccc1C(=O)N1CCc2c([nH]c3ccccc23)C1` the GI50 [1] was 27.6 µM (inactive), the GI50 [2] was 32.4 µM (inactive) and the GI50 [3] was 17.4 µM (inactive). For the same compound, the GI50 [4] was 15.1 µM (inactive), the GI50 [5] was 12.8 µM (inactive) and the GI50 [6] was 16 µM (inactive). For the same compound, the GI50 [7] was 19.5 µM (inactive), the GI50 [8] was 27.5 µM (inactive) and the GI50 [9] was 27.4 µM (inactive). The GI50 [10] was 24.4 µM (inactive), the GI50 [11] was 29 µM (inactive) and the GI50 [12] was 21 µM (inactive). For the same compound, the GI50 [13] was 14 µM (inactive), the GI50 [14] was 35.9 µM (inactive) and the GI50 [15] was 21.2 µM (inactive). For the same compound, the GI50 [16] was 28.9 µM (inactive), the GI50 [17] was 21.9 µM (inactive) and the GI50 [18] was 34.9 µM (inactive). For the same compound, the GI50 [19] was 22.6 µM (inactive) and the GI50 [20] was 19.4 µM (inactive).
